{
  "source": "paper PMC8019204",
  "about": "(Cancer Science, 2021)",
  "key": {"GEOMETRY mono-1: safety": {"assay": "GEOMETRY mono-1: safety", "assay_type": "in vivo, human"}, "METΔex14‐mutated NSCLC [1]": {"system": "METΔex14‐mutated NSCLC"}, "[2]": {"assay": "GEOMETRY mono-1: plasma pharmacokinetics of capmatinib", "assay_type": "in vivo, human", "details": "for AUC(0-t): AUC0–12, geometric mean (CV%)"}, "[3]": {"details": "single agent; Japanese patients with advanced solid tumors; cited from earlier work"}, "METΔex14‐mutated NSCLC [4]": {"system": "METΔex14‐mutated NSCLC", "details": "global population, cited from earlier work"}, "MET‐amplified NSCLC [5]": {"system": "MET‐amplified NSCLC", "details": "global population, cited from earlier work"}, "MET‐amplified NSCLC [6]": {"system": "MET‐amplified NSCLC"}, "[7]": {"details": "1L group, the one patient with PR"}, "[8]": {"details": "2/3L, cohort 1a GCN ≥ 10 (n = 11)"}, "[9]": {"details": "2/3L, cohort 1b GCN ≥ 6 to <10 (n = 1)"}, "[10]": {"details": "2/3L, cohort 2 GCN ≥ 4 to <6 (n = 10)"}},
  "note": "Where “and” joins values, the source holds several entries; their conditions need not be identical. Equal values may be shown once. Read-outs that look alike come from different tables or passages of the source.",
  "data": [
    {"smiles": "CNC(=O)c1ccc(-c2cnc3ncc(Cc4ccc5ncccc5c4)n3n2)cc1F", "note": "[capmatinib, Capmatinib]", "values": [
      {"measurement": "Treatment‐related AE: Headache", "setting": "GEOMETRY mono-1: safety; grade 3/4, n = 45", "value": "0 n (%) of patients"},
      {"measurement": "Treatment‐related AE: Hypoalbuminaemia", "setting": "GEOMETRY mono-1: safety; grade 3/4, n = 45", "value": "0 n (%) of patients"},
      {"measurement": "Treatment‐related AE: Malaise", "setting": "GEOMETRY mono-1: safety; grade 3/4, n = 45", "value": "1 (2.2) n (%) of patients"},
      {"measurement": "Treatment‐related AE: Nausea", "setting": "GEOMETRY mono-1: safety; grade 3/4, n = 45", "value": "0 n (%) of patients"},
      {"measurement": "Treatment‐related AE: Oedema peripheral", "setting": "GEOMETRY mono-1: safety; grade 3/4, n = 45", "value": "3 (6.7) n (%) of patients"},
      {"measurement": "Treatment‐related AE: Pyrexia", "setting": "GEOMETRY mono-1: safety; grade 3/4, n = 45", "value": "0 n (%) of patients"},
      {"measurement": "Treatment‐related AE: Rash", "setting": "GEOMETRY mono-1: safety; grade 3/4, n = 45", "value": "0 n (%) of patients"},
      {"measurement": "Treatment‐related AE: Vomiting", "setting": "GEOMETRY mono-1: safety; grade 3/4, n = 45", "value": "1 (2.2) n (%) of patients"},
      {"measurement": "Any treatment‐related AE", "setting": "GEOMETRY mono-1: safety; grade 3/4, n = 45, Table 5", "value": "25 (55.6) n (%) of patients"},
      {"measurement": "Patients who experienced at least one AE", "setting": "GEOMETRY mono-1: safety; of 45 patients, cutoff September 18, 2019", "value": 45, "unit": "patients"},
      {"measurement": "Discontinuation from treatment phase, reason: Adverse event", "setting": "GEOMETRY mono-1: safety; overall Japanese cohort (n = 45), cutoff April 15, 2019", "value": "8 (17.8) n (%) of patients"},
      {"measurement": "Best overall response: CR", "setting": "METΔex14‐mutated NSCLC [1]; 1L group (cohort 5b, n = 2)", "value": "0 n (%) of patients"},
      {"measurement": "Best overall response: Non‐CR/non‐PD", "setting": "METΔex14‐mutated NSCLC [1]; 1L group (cohort 5b, n = 2)", "value": "0 n (%) of patients"},
      {"measurement": "Best overall response: PD", "setting": "METΔex14‐mutated NSCLC [1]; 1L group (cohort 5b, n = 2)", "value": "0 n (%) of patients"},
      {"measurement": "Best overall response: PR", "setting": "METΔex14‐mutated NSCLC [1]; 1L group (cohort 5b, n = 2)", "value": "1 (50.0) n (%) of patients"},
      {"measurement": "Best overall response: SD", "setting": "METΔex14‐mutated NSCLC [1]; 1L group (cohort 5b, n = 2)", "value": "1 (50.0) n (%) of patients"},
      {"measurement": "Best overall response: Unknown", "setting": "METΔex14‐mutated NSCLC [1]; 1L group (cohort 5b, n = 2)", "value": "0 n (%) of patients"},
      {"measurement": "DOR", "setting": "METΔex14‐mutated NSCLC [1]; [7]", "value": 4.24, "unit": "months"},
      {"measurement": "Decrease in lesion size", "setting": "METΔex14‐mutated NSCLC [1]; [7]", "value": 76.5, "unit": "%"},
      {"measurement": "Time to confirmed PD after starting capmatinib", "setting": "METΔex14‐mutated NSCLC [1]; [7]", "value": "168 days and 5.5 months"},
      {"measurement": "DCR (BIRC)", "setting": "METΔex14‐mutated NSCLC [1]; 2/3L group (cohort 4)", "value": 81.8, "unit": "%"},
      {"measurement": "Median PFS (BIRC)", "setting": "METΔex14‐mutated NSCLC [1]; 2/3L group (cohort 4)", "value": 4.70, "unit": "months"},
      {"measurement": "ORR (BIRC)", "setting": "METΔex14‐mutated NSCLC [1]; 2/3L group (cohort 4)", "value": 36.4, "unit": "%"},
      {"measurement": "Best overall response: CR", "setting": "METΔex14‐mutated NSCLC [1]; 2/3L group (cohort 4, n = 11)", "value": "0 n (%) of patients"},
      {"measurement": "Best overall response: Non‐CR/non‐PD", "setting": "METΔex14‐mutated NSCLC [1]; 2/3L group (cohort 4, n = 11)", "value": "0 n (%) of patients"},
      {"measurement": "Best overall response: PD", "setting": "METΔex14‐mutated NSCLC [1]; 2/3L group (cohort 4, n = 11)", "value": "1 (9.1) n (%) of patients"},
      {"measurement": "Best overall response: PR", "setting": "METΔex14‐mutated NSCLC [1]; 2/3L group (cohort 4, n = 11)", "value": "4 (36.4) n (%) of patients"},
      {"measurement": "Best overall response: SD", "setting": "METΔex14‐mutated NSCLC [1]; 2/3L group (cohort 4, n = 11)", "value": "5 (45.5) n (%) of patients"},
      {"measurement": "Best overall response: Unknown", "setting": "METΔex14‐mutated NSCLC [1]; 2/3L group (cohort 4, n = 11)", "value": "1 (9.1) n (%) of patients"},
      {"measurement": "Median DOR (95% CI)", "setting": "METΔex14‐mutated NSCLC [1]; 2/3L group (cohort 4, n = 11)", "value": "NE (3.35–NE)"},
      {"measurement": "Median TTR (95% CI)", "setting": "METΔex14‐mutated NSCLC [1]; 2/3L group (cohort 4, n = 11)", "value": "NE (1.38–NE)"},
      {"measurement": "Probability estimate at 3 mo for TTR (95% CI)", "setting": "METΔex14‐mutated NSCLC [1]; 2/3L group (cohort 4, n = 11)", "value": "36.4 (15.5‐70.3)"},
      {"measurement": "Tumor shrinkage, deep response", "setting": "METΔex14‐mutated NSCLC [1]; 2/3L group, a patient with PR", "value": "~ 80%"},
      {"measurement": "Brain response per independent neuroradiologist review", "setting": "METΔex14‐mutated NSCLC [1]; 2/3L group, one patient with brain metastases, CT 12 weeks after starting capmatinib", "value": "partial resolution of brain lesions"},
      {"measurement": "Tumor shrinkage, deep response", "setting": "METΔex14‐mutated NSCLC [1]; one patient in each group (1L and 2/3L)", "value": "~ 80%"},
      {"measurement": "Accumulation of exposure", "setting": "[2]; 400 mg twice daily, Japanese patients", "value": 1.41, "unit": "fold"},
      {"measurement": "Accumulation of exposure", "setting": "[2]; 400 mg twice daily, overall study result", "value": 1.39, "unit": "fold"},
      {"measurement": "Racc AUC0–12 (accumulation ratio), geometric mean (CV%)", "setting": "[2]; cycle 1, day 15 (steady state), 400 mg twice daily, fasting, Japanese patients", "value": 1.41},
      {"measurement": "Time at which maximum concentration was reached after administration", "setting": "[2]; day 15, 400 mg twice daily, Japanese patients", "value": "≤ 1", "unit": "h"},
      {"measurement": "half-life", "setting": "[2]; human, plasma, oral, 400 mg", "value": 6.54, "unit": "h"},
      {"measurement": "AUC(0-t)", "setting": "[2]; human, plasma, oral, 400 mg, cycle 1, day 1, 400 mg twice daily, fasting, Japanese patients", "value": 18200, "unit": "ng·h/mL"},
      {"measurement": "AUC(0-t)", "setting": "[2]; human, plasma, oral, 400 mg, cycle 1, day 15 (steady state), 400 mg twice daily, fasting, Japanese patients", "value": 27000, "unit": "ng·h/mL"},
      {"measurement": "Cmax", "setting": "[2]; human, plasma, oral, 400 mg, Cmax, geometric mean (CV%), cycle 1, day 15 (steady state), 400 mg twice daily, fasting, Japanese patients", "value": 5920, "unit": "ng/mL"},
      {"measurement": "Maximum tolerated dose", "setting": "[3]", "value": "not identified"},
      {"measurement": "ORR by BIRC", "setting": "METΔex14‐mutated NSCLC [4]; first‐line, 28 patients", "value": 68, "unit": "%"},
      {"measurement": "Median DOR in responders", "setting": "METΔex14‐mutated NSCLC [4]; first‐line", "value": 12.6, "unit": "months"},
      {"measurement": "Intracranial responses, share of patients", "setting": "METΔex14‐mutated NSCLC [4]; patients with evaluable brain metastases at baseline", "value": "about half"},
      {"measurement": "ORR by BIRC", "setting": "METΔex14‐mutated NSCLC [4]; second‐/third‐line, 69 patients", "value": 41, "unit": "%"},
      {"measurement": "Tumor shrinkage", "setting": "METΔex14‐mutated NSCLC [4]; second‐/third‐line, in two patients", "value": "> 90", "unit": "%"},
      {"measurement": "Median DOR in responders", "setting": "METΔex14‐mutated NSCLC [4]; second‐/third‐line", "value": 9.7, "unit": "months"},
      {"measurement": "Median DOR", "setting": "MET‐amplified NSCLC [5]; GCN ≥10, first‐line", "value": 7.5, "unit": "months"},
      {"measurement": "Median DOR", "setting": "MET‐amplified NSCLC [5]; GCN ≥10, second/third‐line", "value": 8.3, "unit": "months"},
      {"measurement": "Median DOR", "setting": "MET‐amplified NSCLC [6]; 1L, cohort 5a GCN ≥ 10", "value": 8.2, "unit": "months"},
      {"measurement": "ORR (BIRC)", "setting": "MET‐amplified NSCLC [6]; 1L, cohort 5a GCN ≥ 10 (n = 2)", "value": 100, "unit": "%"},
      {"measurement": "Median DOR", "setting": "MET‐amplified NSCLC [6]; 2/3L, cohort 1a GCN ≥ 10", "value": 8.3, "unit": "months"},
      {"measurement": "DCR (BIRC)", "setting": "MET‐amplified NSCLC [6]; [8]", "value": 81.8, "unit": "%"},
      {"measurement": "ORR (BIRC)", "setting": "MET‐amplified NSCLC [6]; [8]", "value": 45.5, "unit": "%"},
      {"measurement": "DCR (BIRC)", "setting": "MET‐amplified NSCLC [6]; [9]", "value": 100.0, "unit": "%"},
      {"measurement": "ORR (BIRC)", "setting": "MET‐amplified NSCLC [6]; [9]", "value": 0, "unit": "%"},
      {"measurement": "Median DOR", "setting": "MET‐amplified NSCLC [6]; 2/3L, cohort 2 GCN ≥ 4 to <6", "value": 9.7},
      {"measurement": "DCR (BIRC)", "setting": "MET‐amplified NSCLC [6]; [10]", "value": 50.0, "unit": "%"},
      {"measurement": "ORR (BIRC)", "setting": "MET‐amplified NSCLC [6]; [10]", "value": 10, "unit": "%"},
      {"measurement": "DCR (BIRC)", "setting": "MET‐amplified NSCLC [6]; 2/3L, cohort 3 GCN < 4 (n = 6)", "value": 66.7, "unit": "%"},
      {"measurement": "ORR (BIRC)", "setting": "MET‐amplified NSCLC [6]; 2/3L, cohort 3 GCN < 4 (n = 6)", "value": 16.7, "unit": "%"}
    ]}
  ]
}
